Test results: publication PMC12270663, “Cagrilintide lowers bodyweight through brain amylin receptors 1 and 3” (eBioMedicine, 2025)

Experiments:
[1] = system: WT and RAMP1/3 KO high fat diet fed mice; experiment: Study 3: body composition by EchoMRI; type: in vivo, mouse; details: 150 nmol/kg/d s.c., 3 weeks
Description: (§1) Mice were s.c. injected once a day for 3 weeks 1 h before dark onset between 9.00 and 10.00 h. Prior to injection, daily body weight and food intake were measured manually. On the day of sacrifice, mice were anesthetised with pentobarbital (100 mg/kg, i.p., Cantonal Pharmacy of Zurich, Switzerland) 24 h after receiving the last dose of peptide.
Brains were harvested, snap frozen on dry ice and kept at −80 °C until mRNA extraction for next-generation sequencing (NGS) analysis. Blood samples were collected from the right ventricle of the heart during the sacrifice in 1 mL EDTA-coated tubes containing dipeptidyl peptidase-4 inhibitor (10 μL/mL blood; Sigma Aldrich, Switzerland, cat# DPP4-010) and protease inhibitor (30 μL/mL blood; Sigma Aldrich, Switzerland, cat# P2714). After centrifugation, plasma was kept at −80 °C. The mice were stored at −20 °C until body composition analysis was performed.
Lean and fat mass were measured post-mortem using EchoMRI (EchoMRI LLC, USA) at the Zurich Integrative Rodent Physiology (University of Zurich). Calibrations and measurements were performed according to manufacturer's instructions. Two measurements were performed and averaged per mouse. Fat mass and lean mass values are expressed as percent of body weight.

[2] = system: area postrema (AP) neurons of WT and RAMP1/3 KO mice; experiment: Study 4 cohort 1: cFos positive neurons, AP; type: in vivo, mouse; details: second statistical test, Figure 4b
Description: Mice were group housed in a controlled environment maintained at 21 ± 2 °C, under a 12/12 h light–dark cycle (lights off at 11.00 h). In the first cohort, 25 male WT and 25 male RAMP1/3 KO mice aged between 12 and 20 week-old were fed chow diet and maintained under group housing condition. In the second cohort, 18 male WT, 18 male RAMP1 KO, 18 male RAMP3 KO and 18 male RAMP1/3 KO mice aged between 10 and 15 week-old were fed chow diet and maintained under group housing condition.
For both cohorts, animals were deeply anesthetised 90 min later (pentobarbital 100 mg/kg, i.p) and transcardially perfused with cold 0.1 M of phosphate buffer (PB) for 1.5 min followed by 4% of paraformaldehyde (PFA) in PB for 2.5 min. Brains were removed and postfixed overnight in 4% of PFA and cryoprotected in 20% of sucrose-PB for 24 h. Brains were frozen in hexane on dry ice and stored at −80 °C until sectioning. Stereological brain sampling of the areas of interest was performed and brain were serially cut on a cryostat (Leica Biosystems, Germany, cat# CM3050S), mounted on Superfrost Plus slides (Thermo Fisher Scientific, Reinach, Switzerland), and cryoprotected in 50% of PB, 30% of ethylene glycol, 20% of glycerol, and subsequently stored at −20 °C.
Blocking of the mouse brain sections was performed with 0.4% Triton–4% normal goat serum in PBS for 2 h at room temperature. AP/NTS and LPBN sections were incubated at 4 °C for 48 h with rabbit anti-Fos antibody (1:500, Cell signalling technology, Switzerland, Cat# 2250, RRID: AB_2247211), and then after PBS washes, incubated with goat anti-rabbit Alexa Fluor CY3 (1:200, LuBio Science GmbH, Switzerland for Jackson Immunoresearch, Cat# 111-165-144) or alexa fluor 488 for 2 h at room temperature. After thorough washing in PBS, the sections were counterstained with DAPI, mounted immediately and coverslipped with Vectashield antifade Mounting Medium (Vectorlabs, Burlingame, USA, cat# H-1400).[40]
Photomicrographs of all sections containing AP, NTS and LPBN were taken at 20× magnification using Zeiss Axio Scan.Z1 slidescanner (Center for Microscopy and Image Analysis UZH, Zeiss, Germany). All images for each study were acquired using the same exposure time. Scanned images were imported into QuPath (QuPath 0.5.0) for quantification. Three to four sections were counted and averaged per area of interest. A polygon tool was used manually to determine the boundary of the region of interest of the brain section. A cell detection tool was used to detect every cell in the section by using a built-in cell segmentation algorithm. The cell detection tool was used on the DAPI channel to make sure that only a cell was recognised and not the background or artefact by system. A detection classifier was created by using the create detection classifier function. The numbers of positive counted DAPI cells containing a cFos signal were automatically counted within the region. The experimental group was blinded to the experimenter during the analysis.

[3] = system: WT and RAMP1/3 KO high fat diet fed mice; experiment: Study 3: 3-week treatment, food intake and body weight; type: in vivo, mouse
Description: Male mice were housed in a controlled environment maintained at 21 ± 2 °C, under a 12/12 h light–dark cycle (lights off at 11.00 h). Mice had ad libitum access to standard chow (3.14 kcal/g of food; Kliba, Switzerland, cat# 3436) and water, until 3–4 weeks old. Twenty-four WT and twenty-four RAMP 1/3 KO male mice were fed a 60% fat HFD (5.24 kcal/g of food; SSNIFF Spezialdiäten GmbH, Germany, cat# EF D12452) provided ad libitum for 18 weeks. Then mice were fed to a 45% fat HFD (4.73 kcal/g of food; SSNIFF Spezialdiäten GmbH, Germany, cat# EF D12451) provided ad libitum for 6 weeks until the end of the study. The mice were group housed (3–4 mice per cage) until 1 week before the 21-day treatment period. Each cage was equipped with a red plastic house, tissue paper, nest-building material and wood shavings. Prior to the 21-day treatment, mice were injected with vehicle for three days to acclimate to the daily subcutaneous injections and reduce stress associated with the injections.
as §1

AMYRs and CTR = details: cited from earlier work
Source text: In a cellular assay, cagrilintide was confirmed to be a non-selective agonist of the CTR and AMYRs across multiple assays of proximal ...

For `CC(C)C[C@H](NC(=O)[C@H](CCCCN)NC(=O)CNC(=O)[C@H](CC(C)C)NC(=O)[C@@H](NC(=O)[C@@H]1CSSC[C@H](N)C(=O)N[C@@H](CO)C(=O)N[C@@H](CC(N)=O)C(=O)N[C@@H](CC(C)C)C(=O)N[C@@H](CO)C(=O)N[C@@H]([C@@H](C)O)C(=O)N1)C(C)C)C(=O)N[C@@H](CO)C(=O)N[C@@H](CCC(N)=O)C(=O)N[C@@H](CCC(=O)O)C(=O)N[C@@H](CC(C)C)C(=O)N[C@@H](Cc1c[nH]cn1)C(=O)N[C@@H](CCCCN)C(=O)N[C@@H](CC(C)C)C(=O)N[C@@H](CCC(N)=O)C(=O)N[C@H](C(=O)N[C@@H](Cc1ccc(O)cc1)C(=O)N1CCC[C@H]1C(=O)N[C@@H](CCCNC(=N)N)C(=O)N[C@H](C(=O)N[C@@H](CC(N)=O)C(=O)N[C@H](C(=O)NCC(=O)N[C@@H](CO)C(=O)NCC(=O)N[C@H](C(=O)N1CCC[C@H]1C(N)=O)[C@@H](C)O)[C@@H](C)O)[C@@H](C)O)[C@@H](C)O` [sCT, salmon calcitonin], the “reduction of relative lean mass in KO mice compared to WT” value [1] was 15%, the “effect on body composition” value ([1]; WT mice) was “no effect” and the “Predicted (LS) mean diff., AP cFos after square root transformation” value (from here on “Predicted (LS) mean diff., AP cFos”) ([2]; RAMP 1/3 KO, Vehicle vs. sCT (3 nmol/kg), Tukey) was -8.457. The “Predicted (LS) mean diff., AP cFos” value ([2]; RAMP 1/3 KO, Vehicle vs. sCT (150 nmol/kg), Tukey) was -9.262, the “Predicted (LS) mean diff., AP cFos” value ([2]; RAMP 1/3 KO, sCT (3 nmol/kg) vs. Cagrilintide (3 nmol/kg), Tukey) was 4.579 and the “Predicted (LS) mean diff., AP cFos” value ([2]; RAMP 1/3 KO, sCT (3 nmol/kg) vs. sCT (150 nmol/kg), Tukey) was -0.8046. The “Predicted (LS) mean diff., AP cFos” value ([2]; RAMP 1/3 KO, sCT (150 nmol/kg) vs. Cagrilintide (3 nmol/kg), Tukey) was 5.384, the “Predicted (LS) mean diff., AP cFos” value ([2]; WT, Vehicle vs. sCT (3 nmol/kg), Tukey) was -8.131 and the “Predicted (LS) mean diff., AP cFos” value ([2]; WT, Vehicle vs. sCT (150 nmol/kg), Tukey) was -7.632. For the same compound, the “Predicted (LS) mean diff., AP cFos” value ([2]; WT, sCT (3 nmol/kg) vs. Cagrilintide (3 nmol/kg), Tukey) was 1.906, the “Predicted (LS) mean diff., AP cFos” value ([2]; WT, sCT (3 nmol/kg) vs. sCT (150 nmol/kg), Tukey) was 0.4986 and the “Predicted (LS) mean diff., AP cFos” value ([2]; WT, sCT (150 nmol/kg) vs. Cagrilintide (3 nmol/kg), Tukey) was 1.408. For the same compound, the “Predicted (LS) mean diff., AP cFos” value ([2]; sCT (3 nmol/kg), WT vs. RAMP 1/3 KO) was -0.1355, the “Predicted (LS) mean diff., AP cFos” value ([2]; sCT (150 nmol/kg), WT vs. RAMP 1/3 KO) was -1.439 and the “acute anorectic effect on day 1” value ([3]; RAMP1/3 KO mice, cagrilintide 3, sCT 150 nmol/kg s.c.) was “no effect”. The “weight gain on subchronic treatment” value ([3]; WT mice, 150 nmol/kg/d s.c.) was “approx. 2 g”, the “Food intake on Day 1” value ([3]; WT mice, cagrilintide 3, sCT 150 nmol/kg s.c., mean ± SEM, n = 7–8/group) was 1.5 ± 0.2 g and the “residence time (dissociation)” value (AMYRs and CTR; comparable for all AMYRs / all receptors) was 45 to 60 min.

In the case of Davalintide, the “binding to AMYRs” value (AMYRs and CTR) is given as “binds irreversibly”.
